Test results reported in PubChem BioAssay AID268 (DTP/NCI, 2004).
Values joined by “and” are separate entries in the source; they are usually repeats but may differ in a detail not shown here. Equal values may be shown once.

Tested on: CD2F1 mice, P1798 lymphosarcoma sc, tumor weight T/C
Assay: NCI In Vivo Anticancer Drug Screen. Data for tumor model P1798 Lymphosarcoma (subcutaneous) in CD2F1 (CDF1) mice
Details: endpoint: mean tumor weight, higher = larger tumour
Method: The antitumor activity of compounds was measured in mice bearing transplantable tumors. Survival or tumor size were measured and the results are expressed as the measurement made in the treated group (T) divided by the measurement made in the vehicle treated control group (C). The tumor model used in this assay is P1798 Lymphosarcoma (subcutaneous) in CD2F1 (CDF1) mice

[1] = dose: 12.5 mg/kg/injection, schedule: Q01DX010 (ip), vehicle: saline
[2] = dose: 25.0 mg/kg/injection, schedule: Q01DX010 (ip), vehicle: saline
[3] = dose: 50.0 mg/kg/injection, schedule: Q01DX010 (ip), vehicle: saline

CCc1c(CC(=O)O)c2cc(C)ccc2n1Cc1ccc(Cl)cc1
T/C [1]: 120 % of control | T/C [2]: 87 % of control | T/C [3]: 54 % of control

CCOC(C)C(/C=N/NC(N)=S)=NNC(N)=S (stereo not given)
T/C (dose: 30.0 mg/kg/injection, schedule: Q01DX010 (ip), vehicle: saline): 99 % of control | T/C (dose: 60.0 mg/kg/injection, schedule: Q01DX010 (ip), vehicle: saline): 100 % of control | T/C (dose: 120.0 mg/kg/injection, schedule: Q01DX010 (ip), vehicle: saline): 93 % of control

NCCCC(N)C(=O)NCCCCCCCCCCNC(=O)C(N)CCCN (stereo not given)
T/C (dose: 6.25 mg/kg/injection, schedule: Q01DX010 (ip), vehicle: saline): 98 % of control | T/C [1]: 86 % of control | T/C [2]: 92 % of control | T/C [3]: 65 % of control

COCCOC
T/C (dose: 300.0 mg/kg/injection, schedule: Q01DX010 (ip), vehicle: saline): 100 % of control | T/C (dose: 450.0 mg/kg/injection, schedule: Q01DX010 (ip), vehicle: saline): 62 % of control | T/C (dose: 675.0 mg/kg/injection, schedule: Q01DX010 (ip), vehicle: saline): 60 % of control

Nc1nc2n[nH]nc2c(=O)[nH]1
T/C (dose: 25.0 mg/kg/injection, schedule: Q01DX010 (ip), vehicle: alkali diluted with saline): 119 % of control | T/C (dose: 50.0 mg/kg/injection, schedule: Q01DX010 (ip), vehicle: alkali diluted with saline): 64 % of control | T/C (dose: 100.0 mg/kg/injection, schedule: Q01DX010 (ip), vehicle: alkali diluted with saline): 42 % of control and 49 % of control | T/C (dose: 200.0 mg/kg/injection, schedule: Q01DX010 (ip), vehicle: alkali diluted with saline): 15 % of control and 29 % of control | T/C (dose: 400.0 mg/kg/injection, schedule: Q01DX010 (ip), vehicle: alkali diluted with saline): 2 % of control

CN(C)N=Nc1cccc([N+](=O)[O-])c1
T/C (dose: 55.0 mg/kg/injection, schedule: Q01DX011 (ip), vehicle: saline): 82 % of control | T/C (dose: 80.0 mg/kg/injection, schedule: Q01DX011 (ip), vehicle: saline): 188 % of control | T/C (dose: 120.0 mg/kg/injection, schedule: Q01DX011 (ip), vehicle: saline): 89 % of control | T/C (dose: 178.0 mg/kg/injection, schedule: Q01DX010 (ip), vehicle: saline): 49 % of control | T/C (dose: 178.0 mg/kg/injection, schedule: Q01DX011 (ip), vehicle: saline): 113 % of control | T/C (dose: 267.0 mg/kg/injection, schedule: Q01DX010 (ip), vehicle: saline): 74 % of control

Cc1ccc2[nH]c3nc4cc(C)c(C)cc4nc3c2c1
T/C [3]: 93 % of control | T/C (dose: 100.0 mg/kg/injection, schedule: Q01DX010 (ip), vehicle: saline): 76 % of control

NC(Cc1ccc(N(CCCl)CCCl)cc1)C(=O)O (stereo not given)
T/C (dose: 2.5 mg/kg/injection, schedule: Q01DX010 (ip), vehicle: saline): 51 % of control | T/C (dose: 5.0 mg/kg/injection, schedule: Q01DX010 (ip), vehicle: saline): 39 % of control

C[C@]12CC[C@H](O)C[C@@H]1CC[C@@H]1[C@@H]2C(=O)C[C@]2(C)C3=CC(=O)O[C@H]3C[C@@H]12
T/C (dose: 10.0 mg/kg/injection, schedule: Q01DX010 (sc), vehicle: steriod suspending solution): 76 % of control and 83 % of control | T/C (dose: 20.0 mg/kg/injection, schedule: Q01DX010 (sc), vehicle: steriod suspending solution): 97 % of control | T/C (dose: 40.0 mg/kg/injection, schedule: Q01DX010 (sc), vehicle: steriod suspending solution): 87 % of control and 90 % of control | T/C (dose: 80.0 mg/kg/injection, schedule: Q01DX010 (sc), vehicle: steriod suspending solution): 78 % of control and 85 % of control

CC(=O)[C@H]1CC[C@H]2[C@@H]3C[C@H](C)C4=CC(=O)CC[C@]4(C)[C@H]3C(=O)C[C@]12C
T/C (dose: 12.5 mg/kg/injection, schedule: Q01DX005 (sc), vehicle: steriod suspending solution): 89 % of control | T/C (dose: 12.5 mg/kg/injection, schedule: Q01DX010 (sc), vehicle: steriod suspending solution): 93 % of control and 95 % of control | T/C (dose: 25.0 mg/kg/injection, schedule: Q01DX005 (sc), vehicle: steriod suspending solution): 62 % of control | T/C (dose: 25.0 mg/kg/injection, schedule: Q01DX010 (sc), vehicle: steriod suspending solution): 92 % of control and 96 % of control | T/C (dose: 50.0 mg/kg/injection, schedule: Q01DX005 (sc), vehicle: steriod suspending solution): 41 % of control | T/C (dose: 50.0 mg/kg/injection, schedule: Q02DX010 (sc), vehicle: steriod suspending solution): 96 % of control | T/C (dose: 50.0 mg/kg/injection, schedule: Q03DX004 (sc), vehicle: steriod suspending solution): 43 % of control | T/C (dose: 75.0 mg/kg/injection, schedule: Q01DX010 (sc), vehicle: steriod suspending solution): 103 % of control | T/C (dose: 75.0 mg/kg/injection, schedule: Q02DX010 (sc), vehicle: steriod suspending solution): 89 % of control | T/C (dose: 100.0 mg/kg/injection, schedule: Q01DX005 (sc), vehicle: steriod suspending solution): 32 % of control | T/C (dose: 100.0 mg/kg/injection, schedule: Q02DX010 (sc), vehicle: steriod suspending solution): 93 % of control | T/C (dose: 100.0 mg/kg/injection, schedule: Q03DX004 (sc), vehicle: steriod suspending solution): 46 % of control | T/C (dose: 200.0 mg/kg/injection, schedule: Q01DX010 (sc), vehicle: steriod suspending solution): 22 % of control
